The subject of data set [1] is MCF-7. Kind of data set: MTT antiproliferative assay, MCF-7. As to conditions: Homo sapiens. The format is cell-based, human. The protocol:
(§1) We evaluated the cytotoxic activity of the newly synthesised arylated compounds 13–17 by the MTT assay[37] on a panel of human adherent cancer cell lines. The panel included breast (MCF-7 and MDA MB-231) and cervical (HeLa, SiHa and C33A) cancer cell lines differing in receptorial or HPV status. Tumour selectivity was determined on the NIH/3T3 mouse fibroblast cell line.
(§2) Briefly, the panels of breast and cervical cancerous cell lines, differing by their receptorial and HPV status were used, precisely MCF-7 (ER, PR and HER2 positive) and MDA-MB-231 (TNBC) breast carcinoma and HeLa (HPV18+), SiHa (HPV16+), C33A (HPV-) cervical carcinoma cells. Non-cancerous NIH/3T3 mouse fibroblast cell line was used for selectivity study. MCF-7, MDA-MB-231, Hela and NIH/3T3 cell lines were purchased from ECACC (European Collection of Cell Cultures, Salisbury, UK), while SiHa and C33A from ATCC (American Tissue Culture Collection, LGC Standards GmbH, Wesel, Germany). Cells were maintained in Eagle's Minimum Essential Medium (EMEM, Capricorn Scientific GmbH, Ebsdorfergrund, Germany) supplemented with 10% heat-inactivated fetal bovine serum (FBS), 1% non-essential amino acids (NEAA), and 1% antibiotic-antimycotic mixture (penicillin–streptomycin). The cells were maintained at 37 °C in a humidified atmosphere containing 5% CO2.
(§3) For measurements cells were seeded for 96-well plates at a density of 5 000/well, except for C33A, which was seeded in 10 000cells for each well. After overnight standing cells were treated with 10 and 30 µM solutions for screening and increasing concentrations (0.1-30.0 µM) of the test compounds were used for concentration-response curves. After incubation for 72 hours under cell culturing condition 5 mg/ml MTT (3-(4,5-[…])-2,5-diphenyl-2H-tetrazolium bromide) solution was added for another 4 h. The precipitated formazan crystals were solubilized in DMSO and the absorbance was measured at 545 nm with a microplate reader (BMG Labtech, Ortenberg, Germany). Wells with untreated cells were utilized as control, and inhibition % were calculated by GraphPad Prism v 9.0 software (GraphPad Software, San Diego, CA, USA). If the growth-inhibition exceeded 70% at 30 µM concentration during the screening concentration-response curves were fitted and IC50 values were calculated by GraphPad Prism v 9.0. The experiments were performed with five parallel wells for each experimental condition and repeated at least twice.

Data set [2] deals with SiHa. The experiment in a line: MTT antiproliferative assay, SiHa. Type of data set: cell-based, human. As to conditions: Homo sapiens, SiHa, 72 h. Here is the method:
as §1, §2, §3
(In general: Formazan colour is commonly taken as a measure of viable cells.)

Data set [3] deals with MDA-MB-231. Kind of data set: MTT antiproliferative assay, MDA-MB-231. The format is cell-based, human. As to conditions: Homo sapiens. Here is the method: as §1, §2, §3
For data set [4], the system named is C33A. Kind of data set: MTT antiproliferative assay, C33A. The conditions noted are these: Homo sapiens, C-33-A, 72 h. The format is cell-based, human. The protocol: as §1, §2, §3
The test system of data set [5] is human adherent cancer cell lines (HeLa, SiHa, C33A, MCF-7 and MDA-MB-231). Kind of data set: MTT assay, whole panel of cell lines. The format is cell-based. The conditions noted are these: Homo sapiens; MTT, 72 h; range across cell lines; read-out: IC50 range over the investigated cell lines. Here is the method:
as §1, §2, §3

For data set [6], the system named is HeLa. Kind of data set: MTT antiproliferative assay, HeLa. The conditions noted are these: Homo sapiens, HeLa, 72 h. Type of data set: cell-based, human. The protocol:
as §1, §2, §3

In data set [7] the target is T1, 17β-HSD1 (Homo sapiens, UniProt P14061).
T1 sequence (P14061 1-328): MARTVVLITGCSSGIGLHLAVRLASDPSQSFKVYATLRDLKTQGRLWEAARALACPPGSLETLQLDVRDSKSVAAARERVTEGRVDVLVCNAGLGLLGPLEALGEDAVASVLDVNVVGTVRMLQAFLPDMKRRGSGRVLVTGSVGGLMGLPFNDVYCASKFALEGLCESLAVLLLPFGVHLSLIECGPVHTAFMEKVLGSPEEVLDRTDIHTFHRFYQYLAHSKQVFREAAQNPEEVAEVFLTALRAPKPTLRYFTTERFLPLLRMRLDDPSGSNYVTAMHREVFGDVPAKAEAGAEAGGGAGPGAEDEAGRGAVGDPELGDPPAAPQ
Kind of data set: 17β-HSD1 enzymatic assay (E1 to E2, LC-MS/MS). The format is biochemical. Here is the method:
The bacterial homogenate of E. coli overexpressing HSD17B1 was previously prepared as described in references ^S2,S3, and stored in aliquots at -80 °C. Before conducting experiments, aliquots were quickly thawed and diluted twice with 100 mM sodium phosphate buffer (pH 6.5; #14457, #1411007, Kemika), then kept on ice. The enzymatic assay was performed as described in ^S3. Briefly, a 1 mL enzymatic reaction mixture was prepared in 2 mL microcentrifuge tubes with the following components: 10 µL of the test inhibitor dissolved in dimethyl sulfoxide (DMSO; #276855, Sigma Aldrich) or 10 µL of DMSO for control samples, 5 µL of 14 µM substrate estrone (E1; CAS 53-16-7; #E2300-000, Steraloids), 10 µL of 10 mM NADPH (#AE14, Carl Roth) prepared in 100 mM sodium phosphate buffer, and 965 µL of 100 mM sodium phosphate buffer (pH 6.5). The reaction mixture was mixed thoroughly before adding 10 µL of bacterial homogenate. Immediately after addition, the tubes were transferred to an Eppendorf thermoshaker (#5382000031, Eppendorf) and incubated at 37 °C for 10 minutes. To stop the reaction, 60 µL of 1.26 M ascorbic acid (#A92902, Sigma Aldrich) in methanol (#34966, Honeywell/Riedel-de Haen) /acetic acid (#1.00063, Merck) (99:1, v/v) was added. The samples were then immediately processed using solid-phase extraction (SPE). The assay was repeated in three independent experiments, with each experiment performed in technical duplicate.
The preparation of samples for liquid chromatography-tandem mass spectrometry (LC-MS/MS) involved SPE. Stock solutions of E1 and 17β-estradiol (E2; CAS: 50-28-2; #142406, Steraloids) were prepared gravimetrically and dissolved in methanol (#34966, Honeywell/Riedel-de Haen). A working calibrator solution containing both steroids was then prepared by mixing appropriate volumes of the stock solutions in methanol to achieve a final concentration of 1 µg/mL for each steroid. Eight-point calibration curves (excluding zero and blank) were prepared in 100 mM sodium phosphate buffer (pH 6.5). For each 1 mL reaction mixture or calibrator, 10 µL of 100 ng/mL internal standard solution containing [2,3,4-13C3]-17β-estradiol (#719552, Sigma Aldrich) was added. Samples were mixed thoroughly and incubated at room temperature for 15 minutes.
SPE was performed using Strata X 33 µm polymeric reversed-phase columns (30 mg/mL tubes; #8B-S100-TAK, Phenomenex). The procedure involved the following steps: column conditioning with 1 mL of methanol, column equilibration with 1 mL of H₂O (#1.15333, Supelco), sample loading (1 mL sample or calibrator), column washing with 1 mL of H₂O, column drying under high vacuum for 10 minutes, and finally elution with 1 mL of methanol directly into HPLC glass vials (#702713, Macherey-Nagel GmbH/Co). The eluted samples were stored at -20 °C until LC-MS/MS analysis.

Data set [8] relates to NIH/3T3 mouse fibroblast cell line. The experiment in a line: MTT assay, tumour selectivity on non-cancerous fibroblasts. Type of data set: cell-based. The conditions noted are these: Mus musculus. Here is the method: as §1, §2, §3
In data set [9] the test system is cancer cell lines. As to conditions: cited from earlier work.

Broadly, the inhibition is the drop in the measured response relative to a control, in per cent. Turning to `CC(C)(C)c1ccc(-c2cc(O)cc3c2[C@H]2CC[C@@]4(C)C(=O)CC[C@H]4[C@@H]2CC3)cc1` [14c, 3-hydroxy-1-(4-tert-butylphenyl)-13α-estra-1,3,5(10)-triene-17-one], the inhibition at 10 µM was 35.4% in data set [1] (MCF7, 10 µM, 72 h); 20.2% in [2] (10 µM); less than 10% in [3] (MDA-MB-231, 10 µM, 72 h); 25.4% in data set [4] (10 µM); 21.9% in data set [6] (10 µM); 16.1% in data set [8] (NIH3T3, 10 µM, 72 h). Further, the inhibition at 30 µM in [1] (MCF7, 30 µM, 72 h) is 101%; in data set [2] (30 µM), 99.6%; in data set [3] (MDA-MB-231, 30 µM, 72 h), 91.3%; in data set [4] (30 µM), 89.8%; in [6] (30 µM), 98.3%; in data set [8] (NIH3T3, 30 µM, 72 h), 98.3%. The IC50 was 10.6 µM in data set [1] (MCF7, 72 h, read-out: calculated IC50 MCF-7); 12.5 µM in [2] (read-out: calculated IC50 SiHa); 20.5 µM in data set [3] (MDA-MB-231, 72 h, read-out: calculated IC50 MDA-MB-231); 14.4 µM in data set [4] (read-out: calculated IC50 C33A); 10.6 to 20.5 µM in data set [5]; 13 µM in data set [6] (read-out: calculated IC50 HeLa). For the same molecule, the IC50 was 2.7 µM in data set [7] (read-out: 17β-HSD1 calculated IC50 (95% CI)) and 13.7 µM in data set [8] (NIH3T3, 72 h, read-out: calculated IC50 NIH/3T3). In data set [7] (100 µM test concentration, read-out: 17β-HSD1 Inhibition (% ± SD)), the inhibition at 100 µM was 77.6 ± 6.3%.

For `C[C@@]12CC[C@@H]3c4ccc(OCc5cn(Cc6ccccc6)nn5)cc4CC[C@H]3[C@@H]1CCC2=O` [compound 5], in data set [9], the IC50 was 0.6 to 0.9 µM and the “IC50 (cytotoxic)” value is on record as “submicromolar”.
